Measured values taken from patent US11045456B2, “Compositions and methods for treating COPD and other inflammatory conditions” (Georgia State University Research Foundation, Inc., priority 2015, dated 2021).
Numbered stars: 1 amine (or outer) side, 2 acyl side, 3 side chain; on linkers, the order of the positions; unused ones are H or OH. Bridge positions count the residues as written; N and C are the ends. Square brackets hold non-standard residues; d marks the D form. Peptide text beside a SMILES is read from it. I, II: the chains in the order shown. Actinocin(9to1) = Cc1c2oc3c(C)ccc(C(=O)[*:1])c3nc-2c(C(=O)[*:2])c(N)c1=O; NMeV = CN[C@H](C(=O)O)C(C)C; Sar = CNCC(=O)O

What was measured:
PDE4B2 = PDE4B2 expression (RT-PCR) in BEAS-2B cells; type: cell-based, human; details: for NTHi-induced PDE4B2 expression (synergy with NTHi): cAMP elevator / PKA or Epac activator with NTHi
Method: (§1) Bacterial strains and culture condition. Clinical isolates of NTHi strain 12 were used in this study (Ishinaga et al., EMBO J., 26(4):1150-1162, 2007). Bacteria were grown on chocolate agar plates at 37° C. in an atmosphere of 5% CO2 overnight and subsequently inoculated in brain heart infusion (BHI) broth supplemented with 3.5 μg/mL NAD and hemoglobin (BD Biosciences). After overnight incubation, the bacteria were subcultured into fresh broth and the log phase bacteria, monitored by measurement of optical density (OD) value, were washed and suspended in DMEM for in vitro cell experiments and in isotonic saline for in vivo animal experiments. For all in vitro experiments except the dose dependent experiment, NTHi was treated at multiplicity of infection (MOI) of 50.
(§2) Cell culture. All media described below were supplemented with 10% fetal bovine serum (Sigma-Aldrich). Human bronchial epithelial BEAS-2B cells were maintained in RPMI medium (Life Technologies) (ATCC® CRL-9609™). Human primary bronchial epithelial NHBE (Lonza) cells were maintained in bronchial epithelial growth media (BEGM) supplemented with BEGM SingleQuots (Jono et al., J. Biol. Chem. 277(47):45547-45557, 2002). BEAS-2B cells stably expressing human PDE4B2 (PDE4B2-stable cells) were obtained by plasmid transfection following Geneticin selection (300 μg/mL). Cells were cultured in a humidified atmosphere of 5% CO2 at 37° C.
Plasmids, transfections and luciferase assay. The expression plasmids, constitutively active forms of IKKα (IKKα-CA, S176E/S180E) and IKKβ (IKKβ-CA, S177E/S181E) and a dominant negative form of IκBα (IκBα-DN, S32A/S36A) were previously described (Shuto et al., Proc. Natl. Acad. Sci. USA, 98(15):8774-8779, 2001; Ishinaga et al., supra). Luciferase reporter construct of NF-κB (pGL4.32) was purchased from Promega. Human PDE4B2, p65 (RelA) and PKA-Cβ1/2 cDNA sequences were generated and inserted into the BamHI and HindIII sites of the pcDNA3.1/mycHis(−) vector. Mutant p65 and PDE4B2-D392A were generated by using PRIMESTAR® Max (Takara). Empty vector was used as a control and was also added where necessary to ensure an equivalent amount of input DNA. All transient transfections were carried out in triplicate using TRANSIT-LT1® reagent (Minis) following the manufacturer's instruction.

p65 = p65 phosphorylation by Phos-tag PAGE in BEAS-2B cells; type: cell-based, human
Method: Phos-tag PAGE. Recombinant p65 proteins or nuclear extracts recovered without EDTA/EGTA were separated by SDS-PAGE, with 6% gels containing 50 μM Mn^2+-Phos-tag Acrylamide and transferred to PVDF membrane according to the manufacture's instructions (Kinoshita et al., Mol. Cell. Proteomics 5(4):749-757, 2006.

PDE4B [1] = experiment: PDE4B mRNA expression (Q-PCR) in BEAS-2B cells stimulated with NTHi; type: cell-based, human; details: BEAS-2B; ActD 5 ng/ml and Rof 0.1 μM 1 hour, then 1.5-hour NTHi
Method: as §1, §2

[2] = test system: NTHi-induced inflammation; experiment: NTHi-induced inflammation in mouse lung (proinflammatory mediator mRNA, H&E staining); type: in vivo; details: DEX 2 mg/kg i.p. and Rof 5 mg/kg i.p. 2 h before NTHi 5×10^7 CFU/lung
Method: Mice and animal experiments. For NTHi-induced inflammation in C57BL/6J mice (7 weeks old), anaesthetized mice were intratracheally inoculated with NTHi at a concentration of 5×10^7 CFU per mouse and saline was inoculated as control.
. We pre-treated BEAS-2B cells with Rof (1 μM), FSK (1 μM), Iso (0.1 μM) and DEX (10 nM) for 1 h followed by 1.5 h stimulation with NTHi, and PDE4B mRNA expression was analyzed by Q-PCR (FIGS. 7A and 7B). We also pre-treated BEAS-2B cells with Rof (0.1 μM) and DEX (6.5 nM) for 1 h followed by 1.5 h stimulation with NTHi, and PDE4B2 mRNA expression was analyzed by semi-quantitative RT-PCR (FIG. 7C). To assess protein expression, BEAS-2B cells were pre-treated with Rof (0.1 μM) and DEX (100 nM) for 1 h followed by a 5 h stimulation with NTHi, and PDE4B protein expression was analyzed by immunoblot (FIG. 7D). Each target data were normalized with NTHi treated. Data are mean±SD (n=3); *p<0.05 vs NTHi; ^†p<0.05 vs Rof+NTHi. […] After 5 h, mRNA expression in lung tissues were analyzed by Q-PCR for assessing the expression of PDE4B or various proinflammatory mediators and lung tissues were stained against PDE4B (Magnification ×200, Scale bar, 100 μm) (FIG. 7F) and assessed for inflammation using H&E staining (FIG. 7H).

PDE4B [3] = experiment: PDE4B mRNA expression in lung tissues of NTHi-inoculated mice; details: mouse lung; DEX 2 mg/kg i.p. and Rof 5 mg/kg i.p. 2 h before NTHi; after 5 h
[4] = BEAS-2B cells, inhibitor treatment

## NC(=O)Nc1sc(-c2ccc(F)cc2)cc1C(N)=O [IKKβ inhibitor]
PDE4B2; [4]
  induction of PDE4B2 by roflumilast alone: did not affect
  synergistic induction of PDE4B2 by NTHi and roflumilast: significantly inhibited

## C[S+]([O-])c1ccc(-c2nc(-c3ccncc3)c(-c3ccc(F)cc3)[nH]2)cc1 (stereo not shown) [SB203580]
p65
  phosphorylation of p65 induced by overexpression of PKA-Cβ1 (inhibition): not

## CO[C@@H]1[C@@H]2OP(=O)(O)OC[C@H]2O[C@H]1n1c(Sc2ccc(Cl)cc2)nc2c(N)ncnc21 [8-pCPT-2′-O-Me-cAMP]
PDE4B2; BEAS-2B cells
  NTHi-induced PDE4B2 expression (synergy with NTHi): did not markedly synergize

## O=P1(O)OC[C@H]2O[C@@H](n3cnc4c(Nc5ccccc5)ncnc43)[C@@H](O)C2O1 (stereo partly shown) [6-Phe-cAMP, N^6-Phenyl-cAMP]
p65; roflumilast as co-treatment with NTHi
  phosphorylation of p65 (induction): induced this phosphorylation
PDE4B2; BEAS-2B cells
  NTHi-induced PDE4B2 expression (synergy with NTHi): synergistically enhanced
PDE4B2; in IKKβ-CA- but not IKKα-CA-transfected BEAS-2B cells
  PDE4B2 expression: synergistically enhanced

## Nc1ncnc2c1nc(Sc1ccc(Cl)cc1)n2[C@@H]1O[C@@H]2COP(O)(=S)O[C@H]2[C@H]1O (stereo partly shown) [Rp-8-CPT-cAMPS]
p65
  phosphorylation of p65 induced by co-treatment of roflumilast with NTHi (inhibition): inhibited

## Cc1c2oc3c(C)ccc(C(=O)N[C@@H]4C(=O)N[C@H](C(C)C)C(=O)N5CCC[C@H]5C(=O)N(C)CC(=O)N(C)[C@@H](C(C)C)C(=O)O[C@@H]4C)c3nc-2c(C(=O)N[C@@H]2C(=O)N[C@H](C(C)C)C(=O)N3CCC[C@H]3C(=O)N(C)CC(=O)N(C)[C@@H](C(C)C)C(=O)O[C@@H]2C)c(N)c1=O [ActD, actinomycin D] (I: T[dV]P[Sar][NMeV] / II: T[dV]P[Sar][NMeV]; ester I:1-I:C, II:1-II:C; linker I:N-II:N via Actinocin(9to1))
PDE4B [1]
  PDE4B induction by NTHi and roflumilast: completely abrogated

## O=S(=O)(NCCNC/C=C/c1ccc(Br)cc1)c1cccc2cnccc12 [H89]
p65
  phosphorylation of p65 induced by overexpression of PKA-Cβ1 (inhibition): inhibited

## C[C@@H]1C[C@H]2[C@@H]3CCC4=CC(=O)C=C[C@]4(C)[C@@]3(F)[C@@H](O)C[C@]2(C)[C@@]1(O)C(=O)CO [Dexamethasone, dexamethasone]
[2]
  efficacy of Rof in suppressing NTHi-induced inflammation: improves the efficacy of Rof
PDE4B [3]
  PDE4B induction by NTHi and Rof: suppresses

## COc1cccc(-c2cc(=O)c3ccccc3o2)c1N [PD98059]
p65
  phosphorylation of p65 induced by overexpression of PKA-Cβ1 (inhibition): not
